From US12383539B2 (Cavion, Inc., priority 2018, dated 2025)

How the values were obtained:
Assay type in all cases: in vivo, human
[1] = tested on: patients with essential tremor; test: T-CALM: Patient Global Impression of Change (PGIC)
Source text: Treatment success as measured by PGIC was summarized using descriptive statistics.
The Patient Global Impression of Change (PGIC) will quantify a patient's impression of improvement or decline over time with respect to ET treatment (see, e.g., Guy, Assessment Manual for Psychopharmacology. Rockville, MD: Department of Health, Education, and Welfare Public Health Service Alcohol, Drug Abuse, and Mental Health Administration, 1976). The patient will use the PGIC scale to assess current health status versus initiation of treatment and calculate the difference.

[2] = tested on: patients with essential tremor; test: T-CALM: ECG, vital signs, laboratory and examination safety assessments
Experimental: Electrocardiogram results were calculated as the average of the triplicate records at each time point. Baseline was defined as the mean of the triplicate values obtained pre-dose at Day 1. If this value was not available, the mean of the triplicate records obtained at screening were used.
Safety procedures involved collection of all TEAEs (treatment-emergent adverse events) coded into the Medical Dictionary for Regulatory Activities (MedDRA) version 20. Adverse events were classified by maximum severity, drug-related adverse events, serious adverse events, and adverse events leading to patient discontinuation.

[3] = Food effect: MR2 capsules fed vs fasted; conditions: MR2 CX-8998, single 8 mg dose
Source text: Subjects will be screened for study eligibility within 28 days before administration of the first dose of study drug. Subjects who meet the study eligibility criteria will be admitted to the clinical research unit in the afternoon of the day before administration of the first dose of study drug (Period 1/Day −1).

[4] = tested on: patients with essential tremor; test: T-CALM: Clinical Global Impression of Improvement (CGI-I)
Source text: The Clinical Global Impressions Scale (CGI) was developed for use in NIMH-sponsored clinical trials to provide a brief, stand-alone assessment of the clinician's view of a patient's global functioning before and after initiating a study medication (Guy (ed.), ECDEU Assessment Manual for Psychopharmacology. Rockville, MD: US Department of Health, Education, and Welfare Public Health Service Alcohol, Drug Abuse, and Mental Health Administration; 1976). The CGI is a summary measure that takes into account all available information, including knowledge of the patient's history, psychosocial circumstances, symptoms, behavior, and the impact of the symptoms on the patient's ability to function. The CGI has two forms—the CGI-Severity, which rates illness severity at baseline, and the CGI-Improvement, which rates change from baseline.
The CGI-I consists of a single 7-point rating of total improvement or change from baseline CGI-S, regardless of whether or not the change is due entirely to drug treatment.
Treatment success as measured by CGI-I was summarized using descriptive statistics.
The Clinical Global Impressions Scale (CGI) generates a clinician's perception of a patient's functioning prior to and after study medication (see, e.g., Guy, Assessment Manual for Psychopharmacology. Rockville, MD: Department of Health, Education, and Welfare Public Health Service Alcohol, Drug Abuse, and Mental Health Administration, 1976). The CGI overall score considers patient history, psychosocial situations, symptoms and behavior with respect to the ability to function. The CGI-Improvement (CGI-I) will involve a single 7-point rating of total improvement or change from baseline CGI-Severity (CGI-S).

[5] = tested on: patients with essential tremor; test: PK/PD: Cmin exposure of CX-8998 vs change in TETRAS-PS (Hill equation); conditions: steady state
Source text: Pharmacodynamic variables (Response) evaluated included change from baseline in TETRAS performance subscale, TETRAS activities of daily living, TETRAS total score.

[6] = Healthy volunteer PK studies PN001/PN002 with IR capsules
[7] = Average of the single-dose studies (dose 16)

Compound: CC(C)c1ccc(CC(=O)N[C@H](C)c2ccc(OCC(F)(F)F)cn2)cc1 [CX-8998]
- PGIC: Worsened, number of subjects ([1]; Day 28, total 37): 3
- PGIC score, LS mean (SE) ([1]; Day 28, ANCOVA): 0.8 (0.19)
- PGIC score, LS mean difference from placebo (95% CI) ([1]; Day 28, ANCOVA): 0.4 (−0.1, 0.9)
- PGIC category 0 No change, number (%) of patients ([1]; Day 28, N = 39): 14 (36%)
- PGIC category 1 Minimally improved, number (%) of patients ([1]; Day 28, N = 39): 10 (26%)
- PGIC category 2 Much improved, number (%) of patients ([1]; Day 28, N = 39): 7 (18%)
- PGIC category 3 Very much improved, number (%) of patients ([1]; Day 28, N = 39): 3 (8%)
- PGIC category −1 Minimally worse, number (%) of patients ([1]; Day 28, N = 39): 1 (3%)
- PGIC category −2 Much worse, number (%) of patients ([1]; Day 28, N = 39): 1 (3%)
- PGIC category −3 Very much worse, number (%) of patients ([1]; Day 28, N = 39): 1 (3%)
- integrated analysis of electrocardiogram outliers ([2]; T-CALM, efficacious doses): no CVS safety signals
- clinical laboratory parameters vs placebo ([2]; in vivo): No clinically meaningful differences
- vital signs, ECG, neurological and physical examinations ([2]; in vivo): No clinically significant abnormalities
- effect of fed state on overall exposure (AUC) [3]: does not appear to significantly impact overall exposure
- effect of fed vs fasted state on absorption [3]: impacts early absorption of the CX-8998, but does not appear to significantly impact late absorption
- CGI-I score 0-no change: subjects, number (%) ([4]; Day 15): 14 (36%)
- CGI-I score 1-minimally improved: subjects, number (%) ([4]; Day 15): 19 (49%)
- CGI-I score 2-much improved: subjects, number (%) ([4]; Day 15): 6 (15%)
- CGI-I score 3-very much improved: subjects, number (%) ([4]; Day 15): 0
- CGI-I score −1-minimally worse: subjects, number (%) ([4]; Day 15): 0
- CGI-I score −2-much worse: subjects, number (%) ([4]; Day 15): 0
- CGI-I score −3-very much worse: subjects, number (%) ([4]; Day 15): 0
- responders: improvement by CGI-I, % ([4]; Day 15): (64.1%)
- CGI-I category 0 No change, number (%) of patients ([4]; Day 15, N = 39): 14 (36%)
- CGI-I category 1 Minimally improved, number (%) of patients ([4]; Day 15, N = 39): 19 (49%)
- CGI-I category 2 Much improved, number (%) of patients ([4]; Day 15, N = 39): 6 (15%)
- CGI-I category 3 Very much improved, number (%) of patients ([4]; Day 15, N = 39): 0
- CGI-I category −1 Minimally worse, number (%) of patients ([4]; Day 15, N = 39): 0
- CGI-I category −2 Much worse, number (%) of patients ([4]; Day 15, N = 39): 0
- CGI-I category −3 Very much worse, number (%) of patients ([4]; Day 15, N = 39): 0
- CGI-I score 0-no change: subjects, number (%) ([4]; Day 28): 13 (33%)
- CGI-I score 1-minimally improved: subjects, number (%) ([4]; Day 28): 15 (38%)
- CGI-I score 2-much improved: subjects, number (%) ([4]; Day 28): 9 (23%)
- CGI-I score 3-very much improved: subjects, number (%) ([4]; Day 28): 0
- CGI-I score (rescaled −3 to 3), Mean (SD) ([4]; Day 28): 1 (0.8)
- CGI-I score (rescaled −3 to 3), Median (minimum, maximum) ([4]; Day 28): 1 (0, 2)
- CGI-I score −1-minimally worse: subjects, number (%) ([4]; Day 28): 0
- CGI-I score −2-much worse: subjects, number (%) ([4]; Day 28): 0
- CGI-I score −3-very much worse: subjects, number (%) ([4]; Day 28): 0
- responders: improvement by CGI-I, % ([4]; Day 28): (64.9%)
- CGI-I: No Change, number of subjects ([4]; Day 28, total 37): 13
- CGI-I: Worsened, number of subjects ([4]; Day 28, total 37): 0
- CGI-I score, LS mean (SE) ([4]; Day 28, ANCOVA): 1.0 (0.13)
- CGI-I score, LS mean difference from placebo (95% CI) ([4]; Day 28, ANCOVA): 0.6 (0.3, 0.9)
- CGI-I category 0 No change, number (%) of patients ([4]; Day 28, N = 39): 13 (33%)
- CGI-I category 1 Minimally improved, number (%) of patients ([4]; Day 28, N = 39): 15 (38%)
- CGI-I category 2 Much improved, number (%) of patients ([4]; Day 28, N = 39): 9 (23%)
- CGI-I category 3 Very much improved, number (%) of patients ([4]; Day 28, N = 39): 0
- CGI-I category −1 Minimally worse, number (%) of patients ([4]; Day 28, N = 39): 0
- CGI-I category −2 Much worse, number (%) of patients ([4]; Day 28, N = 39): 0
- CGI-I category −3 Very much worse, number (%) of patients ([4]; Day 28, N = 39): 0
- Emax, change from baseline in TETRAS-PS (Hill equation) [5]: approximately −4.1
- AUC0-24 [6, 7]: 8.22 µM·h
- AUCinf [6, 7]: 13.2 µM·h
- Cmax [6, 7]: 1.06 µM
- AUC0-24 ([6]; PN001 Part 1, 16 mg, 1 dose): 8.52 µM·h
- AUCinf ([6]; PN001 Part 1, 16 mg, 1 dose): 12.5 µM·h
- AUC0-24 ([6]; PN001 Part 2, 18 mg, 1 dose): 9.93 µM·h
- AUCinf ([6]; PN001 Part 2, 18 mg, 1 dose): 14.6 µM·h
- Cmax ([6]; PN001 Part 2, 18 mg, 1 dose, healthy volunteers): 1.18 µM
- AUC0-24 ([6]; PN002 Part 1, 18 mg, 1 dose): 9.44 µM·h
- AUCinf ([6]; PN002 Part 1, 18 mg, 1 dose): 18.5 µM·h
- Cmax ([6]; PN002 Part 1, 18 mg, 1 dose, healthy volunteers): 1.33 µM
- AUC0-24 ([6]; PN002 Part 2, 12 mg, 1 dose): 4.99 µM·h
- AUCinf ([6]; PN002 Part 2, 12 mg, 1 dose): 7.31 µM·h
- Cmax ([6]; PN002 Part 2, 12 mg, 1 dose, healthy volunteers): 0.798 µM
- dose proportionality of plasma profiles ([6]; immediate release capsules, human subjects): dose proportional in the 2-18 mg dose range
